# Reference: patent US10369149B2, “4-(2-amino-tetrahydronaphthalenyl)pyrimidine derivative, preparation method therefor, and pharmaceutical composition for preventing or treating cancer, containing same as active ingredient” (KOREA RESEARCH INSTITUTE OF CHEMICAL TECHNOLOGY, priority 2015, dated 2019)
# Structures can show the parent of a compound that is named as a salt. Where two headings read alike, the source gives them in different places.
# Columns and labels:
# [1] = test system: H3122, the non-small cell lung cancer cell line; experiment: ALK inhibitory activity in H3122, SRB staining of live cells; type: cell-based; conditions: Homo sapiens
# Description: […] One day later, the compound of the present invention was added to each well at different concentrations of 10 μM, 2 μM, 0.4 μM, 0.08 μM, […], and 0.00032 μM. DMSO (dimethylsulfoxide) was added to the well that was not loaded with the compound by the same amount as the compound. Three days after the addition of the compound, DMEM was eliminated. 10% TCA (trichloroacetic acid) was added to fix the cells. The wells were washed with running water three times and the live cells were stained with SRB solution (1× sulphorodamine B). Then, OD was measured to calculate the population of the live cells. IC50 of the experimental compound used in the experiment above was calculated by using prism software (Version 5.01, Graphpad).
# Table 2 presents the ALK inhibitory activity of the compounds of the examples of the present invention in H3122 containing ALK enzyme.
# ALK enzyme = ALK enzyme (Homo sapiens, UniProt Q9UM73); experiment: Anaplastic lymphoma kinase (ALK) inhibitory activity, HTRF kinase assay; type: biochemical
# ALK enzyme, sequence (Q9UM73 19-1620): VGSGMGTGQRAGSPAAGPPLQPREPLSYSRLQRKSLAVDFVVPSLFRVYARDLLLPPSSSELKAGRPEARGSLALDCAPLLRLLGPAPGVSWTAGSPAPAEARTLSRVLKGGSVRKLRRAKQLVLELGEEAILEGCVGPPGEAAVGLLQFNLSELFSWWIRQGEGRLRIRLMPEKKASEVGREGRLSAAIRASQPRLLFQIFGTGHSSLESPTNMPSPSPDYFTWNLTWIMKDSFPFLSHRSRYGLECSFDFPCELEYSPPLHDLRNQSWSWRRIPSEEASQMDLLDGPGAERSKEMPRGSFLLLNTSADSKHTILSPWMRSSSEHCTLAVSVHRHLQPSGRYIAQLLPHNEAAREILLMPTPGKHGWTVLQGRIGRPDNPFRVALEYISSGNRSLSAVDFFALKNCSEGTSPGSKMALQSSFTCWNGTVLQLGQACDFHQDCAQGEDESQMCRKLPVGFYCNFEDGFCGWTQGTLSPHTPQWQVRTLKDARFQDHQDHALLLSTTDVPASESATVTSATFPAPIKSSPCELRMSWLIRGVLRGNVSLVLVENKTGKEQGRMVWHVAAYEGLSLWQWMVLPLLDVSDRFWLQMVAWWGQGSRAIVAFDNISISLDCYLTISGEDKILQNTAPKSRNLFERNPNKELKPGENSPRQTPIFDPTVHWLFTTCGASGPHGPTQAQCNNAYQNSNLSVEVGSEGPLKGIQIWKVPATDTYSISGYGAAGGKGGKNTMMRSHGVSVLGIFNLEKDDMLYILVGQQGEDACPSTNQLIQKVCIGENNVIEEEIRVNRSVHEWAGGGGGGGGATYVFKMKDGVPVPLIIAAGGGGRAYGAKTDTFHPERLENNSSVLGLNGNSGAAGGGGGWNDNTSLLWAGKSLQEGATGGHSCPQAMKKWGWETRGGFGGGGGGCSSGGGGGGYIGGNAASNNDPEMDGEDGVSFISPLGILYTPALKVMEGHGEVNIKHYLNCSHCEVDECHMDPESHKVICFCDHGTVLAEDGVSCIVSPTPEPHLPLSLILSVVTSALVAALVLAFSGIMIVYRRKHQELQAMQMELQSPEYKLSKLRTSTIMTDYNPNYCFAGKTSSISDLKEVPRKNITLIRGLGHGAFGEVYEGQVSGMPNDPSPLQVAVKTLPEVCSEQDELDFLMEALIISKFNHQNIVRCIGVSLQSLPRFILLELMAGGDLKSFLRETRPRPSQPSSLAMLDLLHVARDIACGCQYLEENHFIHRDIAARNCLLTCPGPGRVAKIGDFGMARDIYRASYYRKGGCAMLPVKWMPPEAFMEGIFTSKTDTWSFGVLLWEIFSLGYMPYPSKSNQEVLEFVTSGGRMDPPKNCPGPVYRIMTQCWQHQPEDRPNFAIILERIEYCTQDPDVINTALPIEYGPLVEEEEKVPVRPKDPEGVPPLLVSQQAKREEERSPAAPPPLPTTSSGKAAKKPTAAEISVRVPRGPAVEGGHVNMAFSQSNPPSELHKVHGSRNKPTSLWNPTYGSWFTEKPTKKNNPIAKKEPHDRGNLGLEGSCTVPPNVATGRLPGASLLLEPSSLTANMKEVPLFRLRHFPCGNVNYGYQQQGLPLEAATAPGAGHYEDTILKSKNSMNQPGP
# Ba/F3 EML4-ALK L1196M = Ba/F3 EML4-ALK L1196M (Homo sapiens, UniProt Q9UM73, L1196M, cells depend on it); experiment: ALK inhibitory activity in Ba/F3 EML4-ALK L1196M, SRB staining of live cells; conditions: read-out: Ba/F3 EML4-ALK L1196M, three days
# Ba/F3 EML4-ALK L1196M, sequence (Q9UM73 whole entry L1196M): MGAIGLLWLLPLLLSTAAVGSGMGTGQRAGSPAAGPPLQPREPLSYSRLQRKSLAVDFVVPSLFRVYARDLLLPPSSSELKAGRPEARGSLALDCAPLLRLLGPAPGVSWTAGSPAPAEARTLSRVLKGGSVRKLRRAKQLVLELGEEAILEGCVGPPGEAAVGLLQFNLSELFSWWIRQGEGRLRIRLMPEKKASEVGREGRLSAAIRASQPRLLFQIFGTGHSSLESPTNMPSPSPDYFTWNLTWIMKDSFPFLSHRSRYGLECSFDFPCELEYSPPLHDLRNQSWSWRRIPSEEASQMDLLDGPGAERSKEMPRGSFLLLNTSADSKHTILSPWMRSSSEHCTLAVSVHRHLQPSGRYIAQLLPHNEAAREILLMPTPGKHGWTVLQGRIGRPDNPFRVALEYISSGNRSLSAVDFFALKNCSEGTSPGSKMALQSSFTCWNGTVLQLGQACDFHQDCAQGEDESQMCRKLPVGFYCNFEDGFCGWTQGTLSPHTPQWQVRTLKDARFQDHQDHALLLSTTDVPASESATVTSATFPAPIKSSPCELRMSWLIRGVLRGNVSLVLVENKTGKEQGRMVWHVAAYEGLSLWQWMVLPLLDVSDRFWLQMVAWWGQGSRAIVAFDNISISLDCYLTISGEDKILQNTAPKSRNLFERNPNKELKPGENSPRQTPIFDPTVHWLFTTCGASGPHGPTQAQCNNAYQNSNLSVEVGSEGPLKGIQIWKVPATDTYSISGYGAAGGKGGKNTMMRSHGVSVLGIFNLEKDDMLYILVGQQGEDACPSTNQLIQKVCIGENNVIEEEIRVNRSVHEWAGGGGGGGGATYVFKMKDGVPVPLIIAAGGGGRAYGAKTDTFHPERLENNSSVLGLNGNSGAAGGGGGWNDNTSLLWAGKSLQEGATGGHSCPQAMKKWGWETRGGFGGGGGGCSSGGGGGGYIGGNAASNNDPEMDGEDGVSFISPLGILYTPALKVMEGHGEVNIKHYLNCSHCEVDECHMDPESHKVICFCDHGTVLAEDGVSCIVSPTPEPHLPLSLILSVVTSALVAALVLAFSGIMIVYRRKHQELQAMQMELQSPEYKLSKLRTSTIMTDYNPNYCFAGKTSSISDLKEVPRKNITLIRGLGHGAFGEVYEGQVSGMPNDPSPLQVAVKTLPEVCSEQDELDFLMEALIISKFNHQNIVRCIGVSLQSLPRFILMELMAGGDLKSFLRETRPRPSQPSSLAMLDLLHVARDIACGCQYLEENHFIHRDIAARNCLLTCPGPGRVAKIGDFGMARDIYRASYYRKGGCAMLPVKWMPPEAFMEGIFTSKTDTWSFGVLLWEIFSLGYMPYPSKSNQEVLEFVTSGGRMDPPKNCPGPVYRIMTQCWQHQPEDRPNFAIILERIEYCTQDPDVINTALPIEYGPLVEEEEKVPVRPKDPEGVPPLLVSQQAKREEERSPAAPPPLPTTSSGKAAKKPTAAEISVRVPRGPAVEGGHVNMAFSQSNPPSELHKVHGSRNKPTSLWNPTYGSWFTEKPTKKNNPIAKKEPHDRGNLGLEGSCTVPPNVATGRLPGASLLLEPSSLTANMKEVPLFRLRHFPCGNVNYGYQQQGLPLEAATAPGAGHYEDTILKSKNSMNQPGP
# Description: Particularly, 4,000 ALK L1196M cells containing ALK enzyme were distributed in each well of a 96 well plate together with 100 μl of DMEM (Dulbecco's Modified Eagle's Medium). […] DMSO (dimethylsulfoxide) was added to the well that was not loaded with the compound by the same amount as the compound. Three days after the addition of the compound, DMEM was eliminated. 10% TCA (trichloroacetic acid) was added to fix the cells. The wells were washed with running water three times and the live cells were stained with SRB solution (1× sulphorodamine B). Then, OD was measured to calculate the population of the live cells.
# [2] = test system: ALK L1196M cells containing ALK enzyme; experiment: ALK inhibitory activity in ALK L1196M cells, SRB staining of live cells; type: cell-based
# Description: DMSO (dimethylsulfoxide) was added to the well that was not loaded with the compound by the same amount as the compound. Three days after the addition of the compound, DMEM was eliminated. 10% TCA (trichloroacetic acid) was added to fix the cells. The wells were washed with running water three times and the live cells were stained with SRB solution (1× sulphorodamine B). Then, OD was measured to calculate the population of the live cells. IC50 of the experimental compound used in the experiment above was calculated by using prism software (Version 5.01, Graphpad). […] Table 2 presents the ALK inhibitory activity of the compounds of the examples of the present invention in ALK L1196M containing ALK enzyme.
# [3] = NCI-H3122, 72 h, three days, SRB, read-out: Non-small cell lung cancer cell line H3122
# [4] = NCI-H3122, read-out: ALK inhibitory activity in H3122 containing ALK enzyme at the concentration range
# [5] = 72 h, ALK L1196M cells, three days, SRB, read-out: ALK L1196M
SMILES,"IC50 [1, 3] [nM]","IC50 [1, 4] [nM]","IC50 (ALK enzyme; HTRF, read-out: ALK) [nM]",IC50 (ALK enzyme; read-out: anaplastic lymphoma kinase (ALK) inhibitory activity at the concentration) [nM],GI50 (Ba/F3 EML4-ALK L1196M) [nM],"IC50 [2, 5] [nM]","IC50 ([2]; ALK L1196M cells, read-out: ALK inhibitory activity in ALK L1196M containing ALK enzyme at the concentration) [nM]","IC50 ([2]; 72 h, read-out: ALK L1196M) [nM]"
"COc1cc2c(cc1Nc1ncc(Cl)c(Nc3ccccc3S(=O)(=O)C(C)C)n1)CCC(N1CCOCC1)C2 (stereo not drawn) [Example 1, 5-chloro-N4-(2-(isopropylsulfonyl)phenyl)-N2-(3-methoxy-6-morpholino-5,6,7,8-tetrahydronaphthalene-2-yl)pyrimidine-2,4-diamine]",10 to 100,10 to 100,< 10,≤ 10,10 to 100,10 to 100,–,–
"COc1cc2c(cc1Nc1ncc(Cl)c(Nc3ccccc3S(=O)(=O)C(C)C)n1)CCC(N1CCNCC1)C2 (stereo not drawn) [Example 2, 5-chloro-N4-(2-(isopropylsulfonyl)phenyl)-N2-(3-methoxy-6-(piperazine-1-yl)-5,6,7,8-tetrahydronaphthalene-2-yl)pyrimidine-2,4-diamine]",10 to 100,10 to 100,–,–,–,< 10,≤ 10,–
"COc1cc2c(cc1Nc1ncc(Cl)c(Nc3ccccc3S(=O)(=O)C(C)C)n1)C(=O)C(N1CCOCC1)CC2 (stereo not drawn) [Example 3, 7-(5-chloro-4-(2-(isopropylsulfonyl)phenylamino)pyrimidine-2-ylamino)6-methoxy-2-morpholino-3,4-dihydronaphthalene-1(2H)-one]",> 100,–,10 to 100,–,> 100,–,–,> 100
"COc1cc2c(cc1Nc1ncc(Cl)c(Nc3ccccc3S(=O)(=O)C(C)C)n1)CCC(NC(=O)C(F)(F)F)C2(C)C (stereo not drawn) [Example 4, N-(6-(5-chloro-4-(2-(isopropylsulfonyl)phenylamino)pyrimidine-2-ylamino)-7-methoxy-1,1-dimethyl-1,2,3,4-tetrahydronaphthalene-2-yl)-2,2,2-trifluoroacetamide]",> 100,–,> 100,–,> 100,> 100,–,–
"COc1cc2c(cc1Nc1ncc(Cl)c(Nc3ccccc3S(=O)(=O)C(C)C)n1)CCC(=O)C2(C)C [Example 5, 6-(5-chloro-4-(2-(isopropylsulfonyl)phenylamino)pyrimidine-2-ylamino)-7-methoxy-1,1-dimethyl-3,4-dihydronaphthalene-2(1H)-one]",10 to 100,10 to 100,–,–,–,–,–,–
"COc1cc2c(cc1Nc1ncc(Cl)c(Nc3ccccc3S(=O)(=O)C(C)C)n1)C(C)(C)C(=O)CC2 [Example 6, 7-(5-chloro-4-(2-(isopropylsulfonyl)phenylamino)pyrimidine-2-ylamino)-6-methoxy-1,1-dimethyl-3,4-dihydronaphthalene-2(1H)-one]",> 100,–,–,–,–,–,–,–
"COc1cc2c(cc1Nc1ncc(Cl)c(Nc3ccccc3S(=O)(=O)C(C)C)n1)C(C)(C)C(NC(=O)C(F)(F)F)CC2 (stereo not drawn) [Example 7, N-(7-(5-chloro-4-(2-(isopropylsulfonyl)phenylamino)pyrimidine-2-ylamino)-6-methoxy-1,1-dimethyl-1,2,3,4-tetrahydronaphthalene-2-yl)-2,2,2-trifluoroacetamide]",> 100,–,> 100,–,> 100,> 100,–,–
"COc1cc2c(cc1Nc1ncc(Cl)c(Nc3ccccc3S(=O)(=O)C(C)C)n1)CC/C(=N\O)C2(C)C [Example 8, (E)-6-(5-chloro-4-(2-(isopropylsulfonyl)phenylamino)pyrimidine-2-ylamino)-7-methoxy-1,1-dimethyl-3,4-dihydronaphthalene-2(1H)-one oxime]",> 100,–,> 100,–,> 100,–,–,–
"COc1cc2c(cc1Nc1ncc(Cl)c(Nc3ccccc3S(=O)(=O)C(C)C)n1)CC/C(=N\NC(C)=O)C2(C)C [Example 9, (E)-N-(6-(5-chloro-4-(2-(isopropylsulfonyl)phenylamino)pyrimidine-2-ylamino)-7-methoxy-1,1-dimethyl-3,4-dihydronaphthalene-2(1H)-yladene)acetohydrazide]",> 100,–,10 to 100,–,> 100,10 to 100,–,–
"COc1cc2c(cc1Nc1ncc(Cl)c(Nc3ccccc3S(=O)(=O)C(C)C)n1)CC/C(=N\NC(N)=O)C2(C)C [Example 10, (E)-2-(6-(5-chloro-4-(2-(isopropylsulfonyl)phenylamino)pyrimidine-2-ylamino)-7-methoxy-1,1-dimethyl-3,4-dihydronaphthalene-2(1H)-yladene)hydrogencarboxamide]",> 100,–,10 to 100,–,> 100,10 to 100,–,–
"COc1cc2c(cc1Nc1ncc(Cl)c(Nc3ccccc3S(=O)(=O)C(C)C)n1)CC/C(=N\NC(=N)N)C2(C)C [Example 11, (E)-2-(6-(5-chloro-4-(2-(isopropylsulfonyl)phenylamino)pyrimidine-2-ylamino)-7-methoxy-1,1-dimethyl-3,4-dihydronaphthalene-2(1H)-yladene)hydrogencarboxamideamide]",> 100,–,10 to 100,–,> 100,10 to 100,–,–
"COc1cc2c(cc1Nc1ncc(Cl)c(Nc3ccccc3S(=O)(=O)C(C)C)n1)CC/C(=N\NC(=O)OC(C)(C)C)C2(C)C [Example 12, (E)-tert-but 2-(6-(5-chloro-4-(2-(isopropylsulfonyl)phenylamino)pyrimidine-2-ylamino)-7-methoxy-1,1-dimethyl-3,4-dihydronaphthalene-2(1H)-yladene)hydrazinecarboxylate]",> 100,–,> 100,–,> 100,–,–,–
"COc1cc2c(cc1Nc1ncc(Cl)c(Nc3ccccc3S(=O)(=O)C(C)C)n1)CC/C(=N\N)C2(C)C [Example 13, (E)-5-chloro-N2-(6-hydrazono-3-methoxy-5,5-dimethyl-5,6,7,8-tetrahydronaphthalene-2-yl)-N4-(2-(isopropylsulfonyl)phenyl)pyrimidine-2,4-diamine hydrochloride]",10 to 100,10 to 100,10 to 100,–,> 100,10 to 100,–,–
"COc1cc2c(cc1Nc1ncc(Cl)c(Nc3ccccc3S(=O)(=O)C(C)C)n1)CC/C(=N\N1CCOCC1)C2(C)C [Example 15, (E)-5-chloro-N4-(2-(isopropylsulfonyl)phenyl)-N2-(3-methoxy-5,5-dimethyl-6-(morpholinoimino)-5,6,7,8-tetrahydronaphthalene-2-yl)pyrimidine-2,4-diamine]",10 to 100,10 to 100,10 to 100,–,> 100,10 to 100,–,–
"COc1cc2c(cc1Nc1ncc(Cl)c(Nc3ccccc3S(=O)(=O)C(C)C)n1)C(C)(C)/C(=N/O)CC2 [Example 16, (E)-7-(5-chloro-4-(2-(isopropylsulfonyl)phenylamino)pyrimidine-2-ylamino)-6-methoxy-1,1-dimethyl-3,4-dihydronaphthalene-2(1H)-one oxime]",> 100,–,> 100,–,> 100,> 100,–,–
"COc1cc2c(cc1Nc1ncc(Cl)c(Nc3ccccc3S(=O)(=O)C(C)C)n1)CCC(NC=N)C2(C)C (stereo not drawn) [Example 29, N-(6-((5-chloro-4-((2-(isopropylsulfonyl)phenyl)amino)pyridine-2-yl)amino)-7-methoxy-1,1-dimethyl-1,2,3,4-tetrahydronaphthalene-2yl)formimideamide]",10 to 100,–,–,–,> 100,< 10,–,–
COc1cc2c(cc1Nc1ncc(Cl)c(Nc3ccccc3S(=O)(=O)C(C)C)n1)CCC(NC(C)=N)C2(C)C (stereo not drawn) [Example 30],10 to 100,–,–,–,> 100,< 10,–,–
COc1cc2c(cc1Nc1ncc(Cl)c(Nc3ccccc3S(=O)(=O)C(C)C)n1)CCC(NC(=N)N)C2(C)C (stereo not drawn) [Example 31],> 100,–,–,–,> 100,< 10,–,–
